One data set relates to K562 cells. The data set can be described thus: cells. The data set is classed as cell-based. Particulars: Homo sapiens, K562, 72 h, read-out: K562 cells, GI50.
Another data set deals with T1, Kif5a (Homo sapiens, UniProt Q12840).
T1 sequence (Q12840 1-1032): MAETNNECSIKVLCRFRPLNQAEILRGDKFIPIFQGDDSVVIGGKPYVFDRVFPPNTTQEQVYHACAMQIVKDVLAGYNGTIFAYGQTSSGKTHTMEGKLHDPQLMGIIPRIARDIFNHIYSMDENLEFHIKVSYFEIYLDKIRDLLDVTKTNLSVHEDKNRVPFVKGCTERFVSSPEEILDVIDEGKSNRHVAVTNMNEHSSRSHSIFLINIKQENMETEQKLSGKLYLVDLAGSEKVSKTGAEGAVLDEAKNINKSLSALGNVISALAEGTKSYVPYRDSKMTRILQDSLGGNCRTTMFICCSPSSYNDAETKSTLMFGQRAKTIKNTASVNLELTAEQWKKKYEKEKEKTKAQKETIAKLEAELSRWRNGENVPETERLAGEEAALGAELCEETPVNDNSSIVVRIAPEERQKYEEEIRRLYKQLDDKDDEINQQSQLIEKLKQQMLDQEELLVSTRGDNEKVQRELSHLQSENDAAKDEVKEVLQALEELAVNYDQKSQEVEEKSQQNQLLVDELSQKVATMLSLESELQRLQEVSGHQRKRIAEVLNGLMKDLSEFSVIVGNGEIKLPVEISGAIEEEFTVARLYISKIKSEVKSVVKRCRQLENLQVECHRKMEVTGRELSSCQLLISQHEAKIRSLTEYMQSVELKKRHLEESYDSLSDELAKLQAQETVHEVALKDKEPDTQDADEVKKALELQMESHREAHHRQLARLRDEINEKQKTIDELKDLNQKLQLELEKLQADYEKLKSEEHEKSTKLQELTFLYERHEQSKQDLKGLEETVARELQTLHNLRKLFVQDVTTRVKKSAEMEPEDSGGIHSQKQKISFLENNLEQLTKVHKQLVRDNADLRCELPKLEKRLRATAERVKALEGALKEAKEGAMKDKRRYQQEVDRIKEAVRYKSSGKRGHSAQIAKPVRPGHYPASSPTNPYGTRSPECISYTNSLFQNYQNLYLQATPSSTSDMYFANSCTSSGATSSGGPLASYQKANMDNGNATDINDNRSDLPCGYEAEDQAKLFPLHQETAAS
Nature of the data set: Kinesin panel, basal and MT-stimulated ATPase, Kif5a. It counts as biochemical. To be noted: data not shown.

A further data set concerns the target T2, Kif7 (Homo sapiens, UniProt Q2M1P5).
T2 sequence (Q2M1P5 1-1343): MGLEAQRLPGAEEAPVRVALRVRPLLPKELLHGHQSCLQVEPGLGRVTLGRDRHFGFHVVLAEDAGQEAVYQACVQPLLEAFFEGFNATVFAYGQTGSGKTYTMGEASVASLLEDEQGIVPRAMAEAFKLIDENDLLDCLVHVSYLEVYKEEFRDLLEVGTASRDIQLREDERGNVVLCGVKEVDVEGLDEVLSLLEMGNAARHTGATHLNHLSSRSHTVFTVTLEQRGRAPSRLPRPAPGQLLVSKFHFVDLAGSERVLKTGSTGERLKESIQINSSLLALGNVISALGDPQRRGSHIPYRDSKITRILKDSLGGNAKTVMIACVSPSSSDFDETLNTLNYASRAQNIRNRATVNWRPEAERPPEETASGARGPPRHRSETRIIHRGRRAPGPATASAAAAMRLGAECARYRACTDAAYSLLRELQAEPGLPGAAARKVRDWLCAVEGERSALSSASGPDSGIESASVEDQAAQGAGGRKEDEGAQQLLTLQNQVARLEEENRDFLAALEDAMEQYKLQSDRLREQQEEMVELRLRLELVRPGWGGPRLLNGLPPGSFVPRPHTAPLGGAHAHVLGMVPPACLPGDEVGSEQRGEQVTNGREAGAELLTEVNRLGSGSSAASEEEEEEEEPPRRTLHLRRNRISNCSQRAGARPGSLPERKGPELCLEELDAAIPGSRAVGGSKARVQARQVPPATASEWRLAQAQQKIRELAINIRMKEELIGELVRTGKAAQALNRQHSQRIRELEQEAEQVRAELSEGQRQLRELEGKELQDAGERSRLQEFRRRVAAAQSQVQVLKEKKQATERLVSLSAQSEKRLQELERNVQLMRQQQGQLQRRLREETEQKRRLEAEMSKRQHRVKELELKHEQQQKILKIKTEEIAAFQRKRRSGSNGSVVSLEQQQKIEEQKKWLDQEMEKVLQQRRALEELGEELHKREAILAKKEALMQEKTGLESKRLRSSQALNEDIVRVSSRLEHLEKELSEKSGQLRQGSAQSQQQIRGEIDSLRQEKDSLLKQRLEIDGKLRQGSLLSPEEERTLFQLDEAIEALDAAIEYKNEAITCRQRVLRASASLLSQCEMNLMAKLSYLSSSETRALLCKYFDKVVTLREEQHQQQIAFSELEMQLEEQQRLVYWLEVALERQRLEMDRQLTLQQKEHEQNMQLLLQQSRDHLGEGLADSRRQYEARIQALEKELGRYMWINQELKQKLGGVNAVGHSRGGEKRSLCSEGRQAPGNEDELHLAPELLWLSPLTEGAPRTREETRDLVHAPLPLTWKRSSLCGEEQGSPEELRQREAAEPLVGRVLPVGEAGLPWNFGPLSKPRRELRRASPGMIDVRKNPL
Nature of the data set: Kinesin panel, basal and MT-stimulated ATPase, Kif7. It counts as biochemical. Particulars: data not shown.

A further data set concerns the target MPP1 (Homo sapiens, UniProt Q96Q89). Nature of the data set: Kinesin panel, basal and MT-stimulated ATPase, MPP1. It counts as biochemical. Particulars: data not shown.
The target in another data set is T3, MKLP-2 (Homo sapiens, UniProt O95235).
T3 sequence (O95235 1-890): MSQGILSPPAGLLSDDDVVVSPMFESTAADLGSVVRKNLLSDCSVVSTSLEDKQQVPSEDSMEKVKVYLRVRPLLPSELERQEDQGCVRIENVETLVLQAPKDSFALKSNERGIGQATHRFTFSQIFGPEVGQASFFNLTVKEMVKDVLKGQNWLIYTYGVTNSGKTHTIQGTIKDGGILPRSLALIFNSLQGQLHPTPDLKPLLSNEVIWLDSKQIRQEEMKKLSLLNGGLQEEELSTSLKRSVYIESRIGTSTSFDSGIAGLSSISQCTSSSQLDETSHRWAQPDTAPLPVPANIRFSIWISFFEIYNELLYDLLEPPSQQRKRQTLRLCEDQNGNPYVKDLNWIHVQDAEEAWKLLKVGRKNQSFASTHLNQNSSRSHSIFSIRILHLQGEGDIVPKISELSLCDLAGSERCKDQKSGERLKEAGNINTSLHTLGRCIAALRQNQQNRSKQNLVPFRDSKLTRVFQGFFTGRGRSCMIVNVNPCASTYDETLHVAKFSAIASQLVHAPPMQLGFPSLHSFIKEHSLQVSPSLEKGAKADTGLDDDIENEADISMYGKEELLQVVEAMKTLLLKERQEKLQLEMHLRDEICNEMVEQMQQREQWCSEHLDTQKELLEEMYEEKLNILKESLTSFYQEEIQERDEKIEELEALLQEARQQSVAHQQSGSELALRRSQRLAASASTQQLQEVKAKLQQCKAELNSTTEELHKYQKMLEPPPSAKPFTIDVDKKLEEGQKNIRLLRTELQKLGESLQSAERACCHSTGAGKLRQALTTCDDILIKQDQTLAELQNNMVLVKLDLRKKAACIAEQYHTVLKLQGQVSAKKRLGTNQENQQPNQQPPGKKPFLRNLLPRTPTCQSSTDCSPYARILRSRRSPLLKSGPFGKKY
The data set can be described thus: Kinesin panel, basal and MT-stimulated ATPase, MKLP-2. To be noted: data not shown. It counts as biochemical.

Another data set deals with CENP-E (Homo sapiens, UniProt Q02224). The data set can be described thus: Kinesin panel, basal and MT-stimulated ATPase, CENP-E. It counts as biochemical. Particulars: data not shown.
Sequence of CENP-E (Q02224 whole entry): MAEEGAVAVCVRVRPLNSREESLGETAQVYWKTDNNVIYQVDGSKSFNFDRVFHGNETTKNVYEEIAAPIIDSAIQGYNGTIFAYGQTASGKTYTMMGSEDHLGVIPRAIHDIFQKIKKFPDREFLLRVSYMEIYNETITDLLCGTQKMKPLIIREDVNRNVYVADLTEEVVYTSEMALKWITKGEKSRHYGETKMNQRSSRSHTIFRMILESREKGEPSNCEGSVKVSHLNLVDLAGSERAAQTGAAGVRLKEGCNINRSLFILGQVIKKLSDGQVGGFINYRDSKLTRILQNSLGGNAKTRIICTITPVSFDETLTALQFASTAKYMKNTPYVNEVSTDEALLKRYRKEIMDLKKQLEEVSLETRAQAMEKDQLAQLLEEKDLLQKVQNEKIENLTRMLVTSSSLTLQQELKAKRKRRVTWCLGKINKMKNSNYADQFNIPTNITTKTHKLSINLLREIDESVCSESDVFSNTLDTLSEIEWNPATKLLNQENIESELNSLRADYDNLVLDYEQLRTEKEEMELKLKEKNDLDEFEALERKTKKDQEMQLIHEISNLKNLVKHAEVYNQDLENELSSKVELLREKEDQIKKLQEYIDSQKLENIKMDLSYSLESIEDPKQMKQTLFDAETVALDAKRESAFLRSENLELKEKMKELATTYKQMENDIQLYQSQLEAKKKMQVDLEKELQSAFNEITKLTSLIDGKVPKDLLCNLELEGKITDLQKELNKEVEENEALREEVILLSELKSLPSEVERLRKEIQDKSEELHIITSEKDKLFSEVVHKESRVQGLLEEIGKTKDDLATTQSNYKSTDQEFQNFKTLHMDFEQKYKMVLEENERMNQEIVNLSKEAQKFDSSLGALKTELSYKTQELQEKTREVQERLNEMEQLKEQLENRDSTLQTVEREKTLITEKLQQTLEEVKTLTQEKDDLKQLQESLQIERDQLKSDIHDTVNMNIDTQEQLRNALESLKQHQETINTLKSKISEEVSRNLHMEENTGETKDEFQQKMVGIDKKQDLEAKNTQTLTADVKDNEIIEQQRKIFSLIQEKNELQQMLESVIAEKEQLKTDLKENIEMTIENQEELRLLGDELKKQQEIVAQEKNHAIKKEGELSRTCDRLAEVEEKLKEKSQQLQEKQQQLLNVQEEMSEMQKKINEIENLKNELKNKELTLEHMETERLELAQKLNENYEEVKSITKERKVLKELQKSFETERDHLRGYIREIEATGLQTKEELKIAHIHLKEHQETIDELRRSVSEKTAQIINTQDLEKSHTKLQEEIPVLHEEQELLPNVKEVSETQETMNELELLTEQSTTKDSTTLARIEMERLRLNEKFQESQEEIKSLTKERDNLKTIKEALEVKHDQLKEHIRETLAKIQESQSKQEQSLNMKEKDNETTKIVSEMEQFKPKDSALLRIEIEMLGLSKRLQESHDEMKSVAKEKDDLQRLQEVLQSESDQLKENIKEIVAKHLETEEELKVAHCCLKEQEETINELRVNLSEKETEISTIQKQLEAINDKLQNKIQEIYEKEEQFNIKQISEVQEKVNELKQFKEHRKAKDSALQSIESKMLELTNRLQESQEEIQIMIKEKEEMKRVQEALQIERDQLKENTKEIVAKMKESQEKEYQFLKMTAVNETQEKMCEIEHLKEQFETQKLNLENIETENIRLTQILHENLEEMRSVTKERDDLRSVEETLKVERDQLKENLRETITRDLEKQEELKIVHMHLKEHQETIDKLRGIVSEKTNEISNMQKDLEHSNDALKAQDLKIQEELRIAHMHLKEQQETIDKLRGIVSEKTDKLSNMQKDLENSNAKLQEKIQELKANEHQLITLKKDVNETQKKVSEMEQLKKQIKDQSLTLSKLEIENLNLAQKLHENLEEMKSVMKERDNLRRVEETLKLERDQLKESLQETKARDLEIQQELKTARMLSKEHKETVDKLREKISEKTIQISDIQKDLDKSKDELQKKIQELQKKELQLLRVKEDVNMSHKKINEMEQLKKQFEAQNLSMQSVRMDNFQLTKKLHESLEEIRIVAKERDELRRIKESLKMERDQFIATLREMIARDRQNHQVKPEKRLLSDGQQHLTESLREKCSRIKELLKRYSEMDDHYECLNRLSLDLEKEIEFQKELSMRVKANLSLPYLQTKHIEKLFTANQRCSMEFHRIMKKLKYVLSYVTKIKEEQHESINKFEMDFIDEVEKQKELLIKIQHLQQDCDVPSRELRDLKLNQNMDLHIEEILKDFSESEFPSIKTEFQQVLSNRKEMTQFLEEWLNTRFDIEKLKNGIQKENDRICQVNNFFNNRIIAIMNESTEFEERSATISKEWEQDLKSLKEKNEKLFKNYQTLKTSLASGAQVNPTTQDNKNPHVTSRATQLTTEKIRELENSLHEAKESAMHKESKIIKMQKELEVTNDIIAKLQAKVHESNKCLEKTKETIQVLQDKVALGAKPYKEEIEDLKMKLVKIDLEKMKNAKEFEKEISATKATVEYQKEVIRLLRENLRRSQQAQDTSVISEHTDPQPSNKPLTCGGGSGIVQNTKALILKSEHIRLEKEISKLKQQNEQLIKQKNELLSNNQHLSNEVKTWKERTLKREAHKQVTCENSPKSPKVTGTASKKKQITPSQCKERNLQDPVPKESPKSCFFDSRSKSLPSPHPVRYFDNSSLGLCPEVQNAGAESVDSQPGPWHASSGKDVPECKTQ
The nature of data set [1]: Human microsomal stability. Particulars: human microsomes, 3 µM.
A short description of data set [2]: Mouse microsomal stability. Particulars: mouse microsomes, 3 µM.
The nature of data set [3]: Human plasma protein binding, equilibrium dialysis. Particulars: 50%. (In general: In equilibrium dialysis only unbound substance equilibrates across the membrane.)

Where only a bound is given, the exact number is not on record here.

Sequence of MPP1 (Q96Q89 whole entry): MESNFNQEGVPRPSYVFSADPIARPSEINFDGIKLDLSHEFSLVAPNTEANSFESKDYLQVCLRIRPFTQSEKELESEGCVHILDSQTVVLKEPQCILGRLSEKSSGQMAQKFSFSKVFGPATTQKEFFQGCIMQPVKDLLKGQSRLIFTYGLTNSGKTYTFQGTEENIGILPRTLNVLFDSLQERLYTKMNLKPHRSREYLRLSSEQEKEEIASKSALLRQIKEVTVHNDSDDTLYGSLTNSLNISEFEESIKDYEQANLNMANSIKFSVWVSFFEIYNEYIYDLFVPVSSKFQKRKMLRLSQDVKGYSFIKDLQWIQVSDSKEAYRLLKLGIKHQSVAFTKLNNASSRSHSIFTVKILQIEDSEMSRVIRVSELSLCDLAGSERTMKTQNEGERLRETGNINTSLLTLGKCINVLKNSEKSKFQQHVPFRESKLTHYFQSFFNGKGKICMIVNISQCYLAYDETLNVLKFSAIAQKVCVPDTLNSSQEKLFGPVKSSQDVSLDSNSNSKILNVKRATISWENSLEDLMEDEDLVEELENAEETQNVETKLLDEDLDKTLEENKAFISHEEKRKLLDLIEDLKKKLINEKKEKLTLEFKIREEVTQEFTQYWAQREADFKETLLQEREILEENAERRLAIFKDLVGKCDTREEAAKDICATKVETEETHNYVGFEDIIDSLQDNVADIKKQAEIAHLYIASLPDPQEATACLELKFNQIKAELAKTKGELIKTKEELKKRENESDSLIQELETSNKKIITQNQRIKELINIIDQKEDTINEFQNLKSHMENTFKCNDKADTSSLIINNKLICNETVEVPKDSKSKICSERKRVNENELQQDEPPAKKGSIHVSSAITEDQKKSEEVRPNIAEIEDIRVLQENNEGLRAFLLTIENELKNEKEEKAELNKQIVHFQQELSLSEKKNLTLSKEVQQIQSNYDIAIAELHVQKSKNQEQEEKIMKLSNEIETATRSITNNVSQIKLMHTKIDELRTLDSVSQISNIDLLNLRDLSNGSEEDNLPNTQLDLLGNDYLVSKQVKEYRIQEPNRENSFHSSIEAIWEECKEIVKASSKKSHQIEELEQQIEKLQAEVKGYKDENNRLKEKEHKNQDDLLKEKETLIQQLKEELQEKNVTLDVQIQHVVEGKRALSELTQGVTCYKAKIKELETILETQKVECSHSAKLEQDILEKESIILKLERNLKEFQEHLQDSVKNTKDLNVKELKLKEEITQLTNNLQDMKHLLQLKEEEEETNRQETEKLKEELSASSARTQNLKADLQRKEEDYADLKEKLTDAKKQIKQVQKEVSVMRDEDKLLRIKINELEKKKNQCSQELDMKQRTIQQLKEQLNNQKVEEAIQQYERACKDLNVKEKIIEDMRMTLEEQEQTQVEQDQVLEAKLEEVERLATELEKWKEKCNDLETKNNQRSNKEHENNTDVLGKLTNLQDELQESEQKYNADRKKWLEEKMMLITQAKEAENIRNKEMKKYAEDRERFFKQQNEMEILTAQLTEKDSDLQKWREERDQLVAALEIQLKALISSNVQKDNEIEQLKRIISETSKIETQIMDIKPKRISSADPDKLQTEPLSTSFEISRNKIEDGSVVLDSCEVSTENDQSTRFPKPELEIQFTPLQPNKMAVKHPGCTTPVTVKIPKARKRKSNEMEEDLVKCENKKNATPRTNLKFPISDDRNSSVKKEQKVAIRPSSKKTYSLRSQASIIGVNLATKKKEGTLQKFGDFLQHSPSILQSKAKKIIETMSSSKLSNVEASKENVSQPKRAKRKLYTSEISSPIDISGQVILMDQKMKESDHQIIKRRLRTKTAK

With `Cc1cccc(C(CCC(N)C(=O)O)(c2ccccc2)c2ccccc2)c1` (racemic) [rac-29, 2-Amino-5-(3-methylphenyl)-5,5-diphenylpentanoic acid], in the data set with K562 cells, the concentration for 50% growth inhibition (GI50) (in general, the concentration that inhibits growth by half) was determined as 0.091 ± 0.009 µM. For the same molecule, the “inhibition of basal and MT-stimulated ATPase activities, Kif5a” value on Kif5a is “did not observe any significant inhibition”. Further, the “inhibition of basal and MT-stimulated ATPase activities, Kif7” value against Kif7 is “did not observe any significant inhibition”. On MPP1, the “inhibition of basal and MT-stimulated ATPase activities, MPP1” value was “did not observe any significant inhibition”. Further, the “inhibition of basal and MT-stimulated ATPase activities, MKLP-2” value on MKLP-2 is given as “did not observe any significant inhibition”. In addition, on CENP-E, the “inhibition of basal and MT-stimulated ATPase activities, CENP-E” value is on record as “did not observe any significant inhibition”.

As to `Cc1cccc(C(CCCN)(c2ccccc2)c2ccccc2)c1` [compound 30, 4-(3-Methylphenyl)-4,4-diphenylbutan-1-amine], the “turbidimetric solubility pH 7.4” value is given as >100, >100, >100 μM. For the same molecule, in [1], the “microsomal stability, Clint, human” value is “stable”. For the same molecule, in [2], the “microsomal stability, Clint, mice” value is recorded as “high microsomal clearance”. In data set [3], this molecule returned a recovery at 5 µM of 69.1%.

Source of the values: publication PMC3428805 (Journal of Medicinal Chemistry, 2012).
